Assay results from US20240300932A1, “N-PHENYLIMINE DERIVATIVE AND PREPARATION METHOD AND USE THEREOF” (Guizhou University, priority 2023, published 2024).

Assays:
Assay in all cases: Post-emergence herbicidal activity test (stem and leaf spray, pot culture)
Assay type in all cases: in vivo
Conditions in all cases: 3 weeks after spraying
Trifoliumre pensL. = test system: Trifoliumre pensL.
In short: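 Rates of 10, 5 and 2.5 g/mu were applied in a single spray-tower treatment to 2–3-leaf plants, thinned to 10 per pot. Formulation: acetone solution, Tween 80, 1.5 L/ha methyl oleate synergist. Weed response assessed after 3 further greenhouse weeks; mean of three experiments.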

Amaranthus retroflexus = test system: Amaranthus retroflexus
In short: (§1)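 Pot-grown weeds in loam (pH 7, 1.63% organic matter) were spray-treated on stems and leaves at the 2- to 3-leaf stage with compound in acetone/Tween 80 plus 1.5 liters/ha methyl oleate at 10, 5 or 2.5 g/mu. Fresh-weight growth control was scored 3 weeks later as grades 0–5.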

Setaria viridis = test system: Setaria viridis
In short: as §1

Abutilon theophrasti = test system: Abutilon theophrasti
In short: as §1

Echinochloa crusgalli = test system: Echinochloa crusgalli
In short: as §1

Portulaca oleracea = test system: Portulaca oleracea
In short: as §1

| Compound | Post-emergence herbicidal activity, Trifoliumre pensL. (grade) (Trifoliumre pensL.; dosage 2.5 g/mu) | Post-emergence herbicidal activity, Trifoliumre pensL. (grade) (Trifoliumre pensL.; dosage 5 g/mu) | Post-emergence herbicidal activity, Trifoliumre pensL. (grade) (Trifoliumre pensL.; dosage 10 g/mu) | Post-emergence herbicidal activity, A. retroflexus (grade) (Amaranthus retroflexus; dosage 2.5 g/mu) | Post-emergence herbicidal activity, A. retroflexus (grade) (Amaranthus retroflexus; dosage 5 g/mu) | Post-emergence herbicidal activity, A. retroflexus (grade) (Amaranthus retroflexus; dosage 10 g/mu) | Post-emergence herbicidal activity, S. viridis (grade) (Setaria viridis; dosage 2.5 g/mu) | Post-emergence herbicidal activity, S. viridis (grade) (Setaria viridis; dosage 5 g/mu) | Post-emergence herbicidal activity, S. viridis (grade) (Setaria viridis; dosage 10 g/mu) | Post-emergence herbicidal activity, A. theophrasti (grade) (Abutilon theophrasti; dosage 2.5 g/mu) | Post-emergence herbicidal activity, A. theophrasti (grade) (Abutilon theophrasti; dosage 5 g/mu) | Post-emergence herbicidal activity, A. theophrasti (grade) (Abutilon theophrasti; dosage 10 g/mu) | Post-emergence herbicidal activity, E. crusgalli (grade) (Echinochloa crusgalli; dosage 2.5 g/mu) | Post-emergence herbicidal activity, E. crusgalli (grade) (Echinochloa crusgalli; dosage 5 g/mu) | Post-emergence herbicidal activity, E. crusgalli (grade) (Echinochloa crusgalli; dosage 10 g/mu) | Post-emergence herbicidal activity, P. oleracea (grade) (Portulaca oleracea; dosage 2.5 g/mu) | Post-emergence herbicidal activity, P. oleracea (grade) (Portulaca oleracea; dosage 5 g/mu) | Post-emergence herbicidal activity, P. oleracea (grade) (Portulaca oleracea; dosage 10 g/mu) |
| --- | --- | --- | --- | --- | --- | --- | --- | --- | --- | --- | --- | --- | --- | --- | --- | --- | --- | --- |
| O=C1C2=C(CCCC2)C(=O)N1c1cc(OCc2nnc(-c3ccccc3Br)o2)c(Cl)cc1F [Compound B6] | 5 (Grade 5: the growth control rate is greater than or equal to 85%) | 5 (Grade 5: the growth control rate is greater than or equal to 85%) | 5 (Grade 5: the growth control rate is greater than or equal to 85%) | 5 (Grade 5: the growth control rate is greater than or equal to 85%) | 5 (Grade 5: the growth control rate is greater than or equal to 85%) | 5 (Grade 5: the growth control rate is greater than or equal to 85%) | 2 (Grade 2: the growth control rate is greater than or equal to 20% and less than 40%) | 3 (Grade 3: the growth control rate is greater than or equal to 40% and less than 60%) | 4 (Grade 4: the growth control rate is greater than or equal to 60% and less than 85%) | 5 (Grade 5: the growth control rate is greater than or equal to 85%) | 5 (Grade 5: the growth control rate is greater than or equal to 85%) | 5 (Grade 5: the growth control rate is greater than or equal to 85%) | 1 (Grade 1: the growth control rate is greater than or equal to 5% and less than 20%) | 2 (Grade 2: the growth control rate is greater than or equal to 20% and less than 40%) | 3 (Grade 3: the growth control rate is greater than or equal to 40% and less than 60%) | 5 (Grade 5: the growth control rate is greater than or equal to 85%) | 5 (Grade 5: the growth control rate is greater than or equal to 85%) | 5 (Grade 5: the growth control rate is greater than or equal to 85%) |
| O=C1C2=C(CCCC2)C(=O)N1c1cc(OCc2nnc(-c3ccccc3I)o2)c(Cl)cc1F [Compound B7] | 5 (Grade 5: the growth control rate is greater than or equal to 85%) | 5 (Grade 5: the growth control rate is greater than or equal to 85%) | 5 (Grade 5: the growth control rate is greater than or equal to 85%) | 5 (Grade 5: the growth control rate is greater than or equal to 85%) | 5 (Grade 5: the growth control rate is greater than or equal to 85%) | 5 (Grade 5: the growth control rate is greater than or equal to 85%) | 2 (Grade 2: the growth control rate is greater than or equal to 20% and less than 40%) | 3 (Grade 3: the growth control rate is greater than or equal to 40% and less than 60%) | 4 (Grade 4: the growth control rate is greater than or equal to 60% and less than 85%) | 5 (Grade 5: the growth control rate is greater than or equal to 85%) | 5 (Grade 5: the growth control rate is greater than or equal to 85%) | 5 (Grade 5: the growth control rate is greater than or equal to 85%) | 1 (Grade 1: the growth control rate is greater than or equal to 5% and less than 20%) | 2 (Grade 2: the growth control rate is greater than or equal to 20% and less than 40%) | 3 (Grade 3: the growth control rate is greater than or equal to 40% and less than 60%) | 5 (Grade 5: the growth control rate is greater than or equal to 85%) | 5 (Grade 5: the growth control rate is greater than or equal to 85%) | 5 (Grade 5: the growth control rate is greater than or equal to 85%) |
| O=C1C2=C(CCCC2)C(=O)N1c1cc(OCc2nnc(-c3ccccc3[N+](=O)[O-])o2)c(Cl)cc1F [Compound B8] | 5 (Grade 5: the growth control rate is greater than or equal to 85%) | 5 (Grade 5: the growth control rate is greater than or equal to 85%) | 5 (Grade 5: the growth control rate is greater than or equal to 85%) | 5 (Grade 5: the growth control rate is greater than or equal to 85%) | 5 (Grade 5: the growth control rate is greater than or equal to 85%) | 5 (Grade 5: the growth control rate is greater than or equal to 85%) | 2 (Grade 2: the growth control rate is greater than or equal to 20% and less than 40%) | 3 (Grade 3: the growth control rate is greater than or equal to 40% and less than 60%) | 4 (Grade 4: the growth control rate is greater than or equal to 60% and less than 85%) | 5 (Grade 5: the growth control rate is greater than or equal to 85%) | 5 (Grade 5: the growth control rate is greater than or equal to 85%) | 5 (Grade 5: the growth control rate is greater than or equal to 85%) | 1 (Grade 1: the growth control rate is greater than or equal to 5% and less than 20%) | 2 (Grade 2: the growth control rate is greater than or equal to 20% and less than 40%) | 3 (Grade 3: the growth control rate is greater than or equal to 40% and less than 60%) | 5 (Grade 5: the growth control rate is greater than or equal to 85%) | 5 (Grade 5: the growth control rate is greater than or equal to 85%) | 5 (Grade 5: the growth control rate is greater than or equal to 85%) |
| O=C1C2=C(CCCC2)C(=O)N1c1cc(OCc2nnc(-c3cccc(Br)c3)o2)c(Cl)cc1F [Compound B10] | 5 (Grade 5: the growth control rate is greater than or equal to 85%) | 5 (Grade 5: the growth control rate is greater than or equal to 85%) | 5 (Grade 5: the growth control rate is greater than or equal to 85%) | 4 (Grade 4: the growth control rate is greater than or equal to 60% and less than 85%) | 5 (Grade 5: the growth control rate is greater than or equal to 85%) | 5 (Grade 5: the growth control rate is greater than or equal to 85%) | 2 (Grade 2: the growth control rate is greater than or equal to 20% and less than 40%) | 3 (Grade 3: the growth control rate is greater than or equal to 40% and less than 60%) | 4 (Grade 4: the growth control rate is greater than or equal to 60% and less than 85%) | 4 (Grade 4: the growth control rate is greater than or equal to 60% and less than 85%) | 5 (Grade 5: the growth control rate is greater than or equal to 85%) | 5 (Grade 5: the growth control rate is greater than or equal to 85%) | 1 (Grade 1: the growth control rate is greater than or equal to 5% and less than 20%) | 2 (Grade 2: the growth control rate is greater than or equal to 20% and less than 40%) | 3 (Grade 3: the growth control rate is greater than or equal to 40% and less than 60%) | 5 (Grade 5: the growth control rate is greater than or equal to 85%) | 5 (Grade 5: the growth control rate is greater than or equal to 85%) | 5 (Grade 5: the growth control rate is greater than or equal to 85%) |
